The values that follow are results of earlier work, collected in patent EP0916677A1, “METHOD FOR SEARCHING FOR PEPTIDES AND PROCESS FOR PRODUCING COMPOUNDS” (YAMANOUCHI PHARMACEUTICAL CO., LTD., priority 1996, dated 1998).

This series deals with T1, trypsin (Bos taurus, UniProt P00760).
T1 sequence (P00760 24-246): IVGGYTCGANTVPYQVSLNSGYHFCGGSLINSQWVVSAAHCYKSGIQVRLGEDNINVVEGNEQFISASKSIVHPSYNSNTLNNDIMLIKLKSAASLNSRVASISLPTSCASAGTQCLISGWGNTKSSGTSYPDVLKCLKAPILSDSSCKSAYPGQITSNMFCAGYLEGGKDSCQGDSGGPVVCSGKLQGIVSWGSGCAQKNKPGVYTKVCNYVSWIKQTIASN
The following applies: known from Eichler et al., Biochemistry, 1993, 32, 11035.

Take Ac-TTKIFT-NH2 [TTKIFT, Ac-TTKIFT-NH2]: the trypsin inhibitory activity result is recorded as “high”.
